# Experimental data: paper PMC4669708 (Cell Death & Disease, 2015)
# Tests used:
# TESK2 = TESK2 (Homo sapiens, UniProt Q96S53); experiment: c-ponatinib pulldown LC-MS/MS; assay type: binding
# Method: (§1) Drug-affinity matrices were prepared as described previously.[51] In brief, 25 nmol of c-ponatinib were immobilized on 50 μl NHS-activated Sepharose 4 Fast Flow beads (GE Healthcare Bio-Sciences AB, Uppsala, Sweden). 10 mg whole cell lysate was used as protein input per replicate. Affinity chromatography and elution were performed in duplicate. After elution, the enriched proteins were reduced with dithiothreitol (DTT) and cysteine residues were alkylated by incubation with iodoacetamide. The samples were digested with modified porcine trypsin (Promega). Five percent of the digested eluates were purified and concentrated by C18 reversed-phase material. Subsequently, samples were analyzed in duplicates by gel-free one-dimensional LCMS.
# Precursor and MS/MS peaks were extracted from the RAW files and saved in the MGF format using msconvert tool (ProteoWizard Library v2.1.2708, www.proteowizard.sourceforge.net) for subsequent protein identification. An initial database search was performed with broader mass tolerance and conservative score threshold to re-calibrate the mass lists for optimal final protein identification. For the initial protein database search, Mascot (www.matrixscience.com, v2.3.02) was used. Error tolerances on the precursor and fragment ions were ±10 p.p.m. and ±0.6 Da, respectively, and the database search limited to fully-tryptic peptides with maximum one missed cleavage, carbamidomethyl cysteine and methionine oxidation set as fixed and variable modifications, respectively. The Mascot peptide ion score threshold was set to 30, and at least three peptide identifications per protein were required. Searches were performed against the human UniProtKB/SwissProt database (www.uniprot.org release 2013.01) including all protein isoforms. The initial peptide identifications were used to deduce independent linear transformations for precursor and fragment masses that would minimize the mean square deviation of measured masses from theoretical. Re-calibrated mass list files were searched against the same human protein database by a combination of Mascot and Phenyx (GeneBio SA, Geneva, Switzerland; version 2.5.14) search engines using narrower mass tolerances (±4 p.p.m. and ±0.3 Da). One missed tryptic cleavage site was allowed. Carbamidomethyl cysteine was set as a fixed modification and oxidized methionine was set as a variable modification. To validate the proteins, Mascot and Phenyx output files were processed by internally developed parsers. Proteins with ≥2 unique peptides above a score T1, or with a single peptide above a score T2 were selected as unambiguous identifications. Additional peptides for these validated proteins with score >T3 were also accepted. For Mascot searches, the following thresholds were used: T1=14, T2=40 and T3=10; Phenyx thresholds were set to 4.2, 4.75 and 3.5, respectively (P-value<10^−3). The validated proteins retrieved by the two algorithms were merged, any spectral conflicts discarded and grouped according to shared peptides. A false discovery rate of <1% for protein identifications and <0.1% for peptides (including the ones exported with lower scores) was determined by applying the same procedure against a database of reversed protein sequences. […] In addition to Mascot protein scores that were proposed as an estimate of protein abundance by the original algorithm, the modified version also included Phenyx protein scores and spectral counts. The algorithm first estimated three measure-specific P-values for each putative interaction, and, in contrast to,[69] P-value calculation utilized the quantiles of the measurements rather than the original data. The Fisher's method was used to combine the three resulting P-values into a single P-value for drug–protein interaction specificity. We have also correlated interaction P-values with the magnitude of competition effect represented by the fold reduction of spectral counts on free compound competition. […]
# endogenous RIPK3 = biological target: T1, endogenous RIPK3 (Homo sapiens, UniProt Q9Y572); experiment: Cellular thermal shift assay (CETSA); assay type: cell-based; conditions: FADD-deficient Jurkat cells, 0.5 μM, 3 h
# T1 construct: endogenous in cells; host or cells: FADD-deficient Jurkat I2.1
# T1 sequence (Q9Y572 whole entry): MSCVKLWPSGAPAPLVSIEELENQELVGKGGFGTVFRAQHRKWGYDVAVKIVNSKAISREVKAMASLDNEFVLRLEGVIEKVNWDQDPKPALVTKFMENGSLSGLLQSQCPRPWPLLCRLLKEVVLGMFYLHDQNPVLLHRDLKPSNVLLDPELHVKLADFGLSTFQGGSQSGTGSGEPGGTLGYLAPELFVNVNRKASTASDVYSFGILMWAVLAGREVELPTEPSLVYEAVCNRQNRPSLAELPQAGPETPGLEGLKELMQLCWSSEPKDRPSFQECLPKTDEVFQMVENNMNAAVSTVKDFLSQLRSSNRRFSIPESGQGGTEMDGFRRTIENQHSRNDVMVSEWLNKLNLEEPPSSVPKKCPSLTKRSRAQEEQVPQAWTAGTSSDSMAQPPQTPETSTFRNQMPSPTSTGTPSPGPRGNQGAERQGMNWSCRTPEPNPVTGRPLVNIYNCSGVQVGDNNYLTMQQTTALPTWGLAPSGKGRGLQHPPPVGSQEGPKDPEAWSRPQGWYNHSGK
# Method: Drug target engagement in cells, causing stabilization of the respective protein, was analyzed essentially as described previously.[55] […] After treatment, cells were collected by centrifugation and resuspended in 1x PBS. The cell suspension was aliquoted into PCR tubes and heated for 3 min at 42, 46, 50, 54, 58 or 62 °C. Subsequently, cells were lysed by three consecutive freeze–thaw cycles using liquid nitrogen. The soluble fraction was separated from precipitated proteins by centrifugation at 13000 r.p.m. and 4 °C for 20 min. The supernatant, containing the soluble proteins, was transferred to a fresh tube and analyzed by immunoblotting.
# RIPK3 to MLKL binding = RIPK3 to MLKL binding (Homo sapiens, UniProt Q9Y572); conditions: HT-29 HA-MLKL cells, doxycycline overnight; 0.5 μM ponatinib, 5 μM pazopanib
# Chain of RIPK3 to MLKL binding (Q9Y572 whole entry): as above
# [1] = test system: FADD-deficient Jurkat cells; experiment: Flow cytometry viability (propidium iodide / forward scatter), TNFα-induced necroptosis; assay type: cell-based; conditions: human, 6 h
# Method: Cells were seeded in 12-, 24- or 96-well plates at proper cell density. For necroptosis or apoptosis assays, cells were incubated with the indicated compound combinations at concentrations stated for 14–24 h. Smac mimetic and z-VAD-FMK were added 30–60 min before treatment with TNF-α, FasL or TRAIL. Cell viability was determined using CellTiter Glo Luminescent Cell Viability Assay (Promega, Fitchburg, WI, USA) according to the manufacturer's instructions. Luminescence was recorded with a SpectraMax M5Multimode plate reader (Molecular Devices, Sunnyvale, CA, USA). For flow cytometry-based determination of viability, cells were harvested, collected by centrifugation, washed once and resuspended in staining buffer (1 × PBS, 10% FBS). Cells were incubated with 0.5 μg/ml PI for 10 min at room temperature (RT) in the dark. Flow cytometric analyses were performed on an LSR Fortessa (BD Biosciences) and analyzed with FlowJo software version 7.6.3 (Tree Star Inc, Ashland, OR, USA). Cell size was evaluated by forward scatter. PI-negative normal-sized cells were considered living and data were normalized to values of untreated controls. For detection of apoptosis, cells were resuspended in Annexin V Binding Buffer (BioLegend, San Diego, CA, USA) and stained with 0.5 μg/ml PI and Alexa Fluor 647 Annexin V (BioLegend) according to manufacturer's instructions.
# [2] = Chemical proteomics, c-ponatinib drug pull-down, LCMS-MS; assay type: binding, human; conditions: c-ponatinib matrix, competition with free ponatinib; cells 2 h TNF-α
# Method: as §1
# Precursor and MS/MS peaks were extracted from the RAW files and saved in the MGF format using msconvert tool (ProteoWizard Library v2.1.2708, www.proteowizard.sourceforge.net) for subsequent protein identification. […] The initial peptide identifications were used to deduce independent linear transformations for precursor and fragment masses that would minimize the mean square deviation of measured masses from theoretical. […] A false discovery rate of <1% for protein identifications and <0.1% for peptides (including the ones exported with lower scores) was determined by applying the same procedure against a database of reversed protein sequences. […]
# Chain of TESK2 (Q96S53 whole entry): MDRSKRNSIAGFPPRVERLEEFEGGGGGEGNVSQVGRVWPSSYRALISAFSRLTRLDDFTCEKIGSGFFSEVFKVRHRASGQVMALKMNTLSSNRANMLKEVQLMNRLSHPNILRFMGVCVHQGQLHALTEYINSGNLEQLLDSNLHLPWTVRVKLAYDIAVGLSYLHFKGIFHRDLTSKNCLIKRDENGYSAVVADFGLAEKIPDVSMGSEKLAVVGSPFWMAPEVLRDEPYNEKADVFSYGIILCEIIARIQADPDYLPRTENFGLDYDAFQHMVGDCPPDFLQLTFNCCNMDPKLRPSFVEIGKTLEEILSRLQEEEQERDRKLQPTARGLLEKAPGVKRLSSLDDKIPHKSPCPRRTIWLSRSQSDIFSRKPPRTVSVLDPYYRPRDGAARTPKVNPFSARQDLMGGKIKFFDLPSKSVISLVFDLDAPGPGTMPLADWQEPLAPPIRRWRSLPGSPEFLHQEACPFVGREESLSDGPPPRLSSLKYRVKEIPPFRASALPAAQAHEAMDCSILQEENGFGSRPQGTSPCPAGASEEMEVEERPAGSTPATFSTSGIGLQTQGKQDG
Av. SC comp. (TESK2; + free ponatinib),Total SC comp. (TESK2; + free ponatinib),Av. SC (TESK2; no competitor),Total SC (TESK2; no competitor),Compound,RIPK3 thermostability (target engagement) (endogenous RIPK3),binding of RIPK3 to MLKL (RIPK3 to MLKL binding),viable cells [1],kinases identified as specific binders (number) [2],non-kinase proteins identified as specific binders (number) [2]
0,0,5,20,Cc1ccc(C(=O)Nc2ccc(CN3CCN(CCCN)CC3)c(C(F)(F)F)c2)cc1C#Cc1cnc2cccnn12 [c-ponatinib],–,–,–,–,–
–,–,–,–,"Cc1ccc(C(=O)Nc2ccc(CN3CCN(C)CC3)c(C(F)(F)F)c2)cc1C#Cc1cnc2cccnn12 [ponatinib, Ponatinib]",led to a shift in the RIPK3 thermostability curve,efficiently blocked binding of RIPK3 to MLKL,"79,3%",38,22
